{"source": "patent US20230065004A1", "about": "“METHOD FOR IMPROVING COLOUR RETENTION OF DYED KERATINOUS MATERIAL, ESPECIALLY HUMAN HAIR” (Henkel AG & Co. KGaA, priority 2019, published 2023)", "origin": "cited, not measured here"}
{"settings": "25° C."}
{"smiles": "O=C([O-])C1=NN(c2ccc(S(=O)(=O)[O-])cc2)C(=O)C1N=Nc1ccc(S(=O)(=O)[O-])cc1.[Na+].[Na+].[Na+]", "note": "(stereo not shown) [Acid Yellow 23, trisodium salt of 4,5-dihydro-5-oxo-1-(4-sulfophenyl)-4-((4-sulfophenyl)azo)-1H-pyrazole-3-carboxylic acid]", "solubility in water": "highly soluble"}
{"smiles": "O=S(=O)([O-])c1ccc(N=Nc2c(O)ccc3ccccc23)cc1.[Na+]", "note": "[Acid Orange 7, sodium salt of 4-[(2-hydroxy-1-naphthyl)azo]benzene sulphonate]", "solubility in water": "more than 7 g/L"}
{"smiles": "Nc1cc(S(=O)(=O)[O-])cc2cc(S(=O)(=O)[O-])c(N=Nc3ccccc3)c(O)c12.[Na+].[Na+]", "note": "[Acid Red 33, dinatrium salt of 5-amino-4-hydroxy-3-(phenylazo)-naphthalene-2,7-disulphonate]", "solubility in water": "about 2.5 g/L"}
{"smiles": "CCN(Cc1cccc(S(=O)(=O)[O-])c1)c1ccc(C(=C2C=CC(=[N+](CC)Cc3cccc(S(=O)(=O)[O-])c3)C=C2)c2ccccc2S(=O)(=O)[O-])cc1.[Na+].[Na+]", "note": "[Acid Blue 9]", "solubility in water": "more than 20 wt. %"}
